# Test results: patent US20200022998A1, “MEDICAL USE OF NOTCH4 OR INHIBITORS THEREOF” (BEIJING INSTITUTE OF GENOMICS, CHINESE ACADEMY OF SCIENCES, priority 2016, published 2020)
# Tests used:
# Type in all cases: cell-based, human
# [1] = tested on: umbilical cord blood-derived CD34+ cells; experiment: polyploid detection, umbilical cord blood-derived CD34+ cells; settings: 10 μM; DMSO about 16%; FIG. 18
# Description: (§1) iPSC-derived CD34^+ cells (prepared by the method as described in Example 3-2) and umbilical cord blood-derived CD34^+ cells were seeded at 1*10^6 cells per well to 4 ml StemSpan™ SFEM 11+50 ng/ml SCF+50 ng/ml TPO+50 ng/ml IL-6+20 ng/ml IL-3, in a 12-well plate, with 1 ml medium for each well, and 3 wells in total for each cell line, to which 10 μM RO4929097, 10 μM DAPT, and the same volume of DMSO as control, were added, respectively, and the time was recorded as Day 0. The liquid was changed every 3 days, and the culture condition was 37° C., 5% CO2. After iPSC-derived CD34^+ cells were incubated for 6 days, and umbilical cord blood-derived CD34^+ cells were incubated for 9 days, the following experiment was carried out.
# (§2) Cells were labeled with CD61-FITC flow cytometric antibody at 4° C. for 30 min. The cells were washed with PBS once, and fixed with 70% ethanol at 4° C. overnight. At the second day, the cells were washed with PBS once. After centriguation, 1 ml PBE (PBS containing 2% serum) +100 μg/ml RNase A +50 μg/ml Propidium Iodide, was added, and incubation was carried out in dark at room temperature for 30 min. The cells were washed with PBS once, and the number of cells (≥8N) in CD61^+ cell population was determined by flow cytometry.
# [2] = tested on: umbilical cord blood-derived CD34+ cells; experiment: proplatelet formation, umbilical cord blood-derived CD34+ cells; settings: 10 μM; DMSO about 44%; FIG. 20D
# Description: as §1
# Proplatelet formation of MKs referred to mature megakaryocytes, which extended long and branched filaments and cytoplasmic protrusions.
# [3] = tested on: umbilical cord blood-derived CD34+ cells; experiment: in vitro megakaryocyte lineage differentiation of umbilical cord blood-derived CD34+ cells, flow cytometry; settings: 10 μM; for number of mature megakaryocytes (CD41+CD42+) produced, increase vs control group: FIG. 15; for proportion of mature megakaryocyte (CD61+), increase vs control group / proportion of mature megakaryocytes MK (CD41+CD42+) produced, increase vs control group: cells collected at D14, FIG. 14
# Description: (1) CD34^+ cells in umbilical cord blood were obtained by Ficoll-Paque PLUS density gradient centrifugation and magnetic bead sorting using CD34 MicroBead Kit. As to the particular steps, please refer to (GE Healthcare Life Sciences, http://www.gelifesciences.com), (Miltenyi Biotec, http://www.miltenyibiotec.com.cn).
# (2) Differentiation of umbilical cord blood-derived CD34^+ cells into megakaryocytes: umbilical cord blood-derived CD34^+ cells were counted, and seeded at 1*10^6 cells to 4 ml StemSpan™ SFEM 11+50 ng/ml SCF+50 ng/ml TPO+50 ng/ml IL-6+20 ng/ml IL-3 in a 12-well plate, with 1 ml medium for each well, and four wells in total, to which 10 μM R04929097, 10 μM L-685458, 10 μM DAPT, and the same volume of DMSO as control were added, respectively, and the time was recorded as Day 0. The liquid was changed every 3 days, and the culture condition was 37° C., 5% CO2. After incubation for 6 days, the cell density was high, and the cells in each well were divided into two wells of a 12-well plate, with 2 ml medium for each well. The inhibitors were added at the same concnetrations as described above. The cells were collected at D14, counted, and detected for cell surface markers (CD41, CD42, CD61) by flow cytometer.
# As to the collection of umbilical cord blood-derived CD34^+ cells, in vitro megakaryocytic differentiation and detection, please refer to Example 4-1.
# [4] = tested on: iPSCs-derived CD34+ cells; experiment: polyploid detection, iPSC-derived CD34+ cells; settings: 10 μM; Notch inhibitor added since Day 5; DMSO about 18%; FIG. 17
# Description: as §1, with “to which 10 μM RO4929097, 10 μM DAPT, and the same volume of DMSO as control, were added, respectively, and the time was recorded as Day 0.” left out
# as §2
# [5] = tested on: umbilical cord blood-derived CD34+ cells; experiment: megakaryocyte colony forming unit (MK-CFU) experiment, umbilical cord blood-derived CD34+ cells; settings: 10 μM; FIG. 16
# Description: Megakaryocyte colony forming unit (MK-CFU) experiment: at Day 14, the cells resulted from induced differentiation were collected, and 7,500 single cells were seeded to collagen-based MegaCult-C Kit. After incubation for 10-12 days, the cells were stained with anti-CD41 antibody and counted. CD41^+ megakaryocyte colonies were counted.
smiles,measurement,setting,value
C[C@H](NC(=O)Cc1cc(F)cc(F)c1)C(=O)N[C@H](C(=O)OC(C)(C)C)c1ccccc1 [DAPT],proportion of polyploid megakaryocytes (≥8N) in CD61+ megakaryocytes,[1],~12%
same,proportion of proplatelet-bearing MKs in 100 differentiated cells,[2],~42%
same,"number of mature megakaryocytes (CD41+CD42+) produced, increase vs control group",[3],2.9 folds
same,"proportion of mature megakaryocyte (CD61+), increase vs control group",[3],2.5 folds
same,"proportion of mature megakaryocytes MK (CD41+CD42+) produced, increase vs control group",[3],4.1 folds
same,proportion of polyploid megakaryocytes (≥8N) in CD61+ megakaryocytes,[4],~21%
same,"ability of megakaryocyte progenitor cells to form mature MK colony (CFU-MK), increase vs control group",[5],2.8 folds
CC(C)(C(=O)NCC(F)(F)C(F)(F)F)C(=O)N[C@@H]1C(=O)Nc2ccccc2-c2ccccc21 [RO4929097],proportion of polyploid megakaryocytes (≥8N) in CD61+ megakaryocytes,[1],about 15%
same,proportion of proplatelet-bearing MKs in 100 differentiated cells,[2],about 40%
same,"number of mature megakaryocytes (CD41+CD42+) produced, increase vs control group",[3],2.9 folds
same,"proportion of mature megakaryocyte (CD61+), increase vs control group",[3],3.1 folds
same,"proportion of mature megakaryocytes MK (CD41+CD42+) produced, increase vs control group",[3],4.5 folds
same,proportion of polyploid megakaryocytes (≥8N) in CD61+ megakaryocytes,[4],about 17%
same,"ability of megakaryocyte progenitor cells to form mature MK colony (CFU-MK), increase vs control group",[5],2.8 folds
